Columns and labels:
Assay type in all cases: cell-based
[1] = biological target: CB2 triple mutant (I110L/L182I/V261L) (Homo sapiens, UniProt P34972, I110L/L182I/V261L); experiment: BRET Gαi1 engagement, CB2 triple mutant; details: read-out: E max, CB2 Triple Mutations Gαi1 Engagement
[2] = biological target: CB1 L193I (Homo sapiens, UniProt P21554, L193I); experiment: BRET Gαi1 engagement, CB1 L193I mutant; details: read-out: E max, CB1 L193I Gαi1 Engagement
[3] = biological target: CB2 V261L (Homo sapiens, UniProt P34972, V261L); experiment: BRET Gαi1 engagement, CB2 V261L mutant; details: read-out: E max, CB2 V261L Gαi1 Engagement
Sequence of CB2 V261L (P34972 whole entry V261L): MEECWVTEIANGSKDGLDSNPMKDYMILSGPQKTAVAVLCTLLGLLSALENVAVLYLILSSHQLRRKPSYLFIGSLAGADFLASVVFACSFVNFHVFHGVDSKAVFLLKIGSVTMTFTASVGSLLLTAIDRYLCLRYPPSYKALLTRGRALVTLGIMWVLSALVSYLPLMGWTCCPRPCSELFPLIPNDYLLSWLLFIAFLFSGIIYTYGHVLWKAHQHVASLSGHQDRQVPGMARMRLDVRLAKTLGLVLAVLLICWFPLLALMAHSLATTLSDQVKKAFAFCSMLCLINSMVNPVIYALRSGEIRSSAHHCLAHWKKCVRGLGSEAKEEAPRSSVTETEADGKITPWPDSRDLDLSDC

[4] = biological target: CB1 I267L (Homo sapiens, UniProt P21554, I267L); experiment: BRET Gαi1 engagement, CB1 I267L mutant; details: read-out: E max, CB1 I267L Gαi1 Engagement
Sequence of CB1 I267L (P21554 whole entry I267L): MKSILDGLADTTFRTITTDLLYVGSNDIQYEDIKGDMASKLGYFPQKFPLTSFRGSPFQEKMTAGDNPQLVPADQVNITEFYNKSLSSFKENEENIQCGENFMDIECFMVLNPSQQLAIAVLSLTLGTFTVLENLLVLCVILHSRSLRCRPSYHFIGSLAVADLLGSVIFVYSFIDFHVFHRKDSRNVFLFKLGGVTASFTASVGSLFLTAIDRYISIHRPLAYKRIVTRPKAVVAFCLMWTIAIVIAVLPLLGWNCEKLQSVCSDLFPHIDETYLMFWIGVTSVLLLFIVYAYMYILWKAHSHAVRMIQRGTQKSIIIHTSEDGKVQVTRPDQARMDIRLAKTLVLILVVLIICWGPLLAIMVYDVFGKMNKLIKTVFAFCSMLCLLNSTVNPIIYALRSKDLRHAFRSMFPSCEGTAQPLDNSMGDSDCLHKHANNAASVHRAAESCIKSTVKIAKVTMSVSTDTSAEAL

[5] = biological target: T1, CB2 (Homo sapiens, UniProt P34972); experiment: BRET β-arrestin 2 recruitment, CB2 wild-type; details: HEK-293T, read-out: E max, CB2 β-Arrestin 2 Recruitment
T1 sequence (P34972 whole entry): as the sequence (P34972 whole entry V261L) above, with L261V counted along it

[6] = biological target: CB2 L182I (Homo sapiens, UniProt P34972, L182I); experiment: BRET Gαi1 engagement, CB2 L182I mutant; details: read-out: E max, CB2 L182I Gαi1 Engagement
Sequence of CB2 L182I (P34972 whole entry L182I): as the sequence (P34972 whole entry V261L) above, with L182I, L261V counted along it

[7] = biological target: CB2 I110L (Homo sapiens, UniProt P34972, I110L); experiment: BRET Gαi1 engagement, CB2 I110L mutant; details: read-out: E max, CB2 I110L Gαi1 Engagement
Sequence of CB2 I110L (P34972 whole entry I110L): as the sequence (P34972 whole entry V261L) above, with I110L, L261V counted along it

[8] = biological target: CB1 (Homo sapiens, UniProt P21554); experiment: BRET Gαi1 engagement, CB1 wild-type; details: CB1 WT, HEK-293T, normalized against CP55940, mean ± SEM
Sequence of CB1 (P21554 whole entry): as the sequence (P21554 whole entry I267L) above, with L267I counted along it

[9] = biological target: T1, CB2; experiment: BRET Gαi1 engagement, CB2 wild-type; details: HEK-293T, read-out: E max, CB2 Gαi1 Engagement

Sequence of CB2 triple mutant (I110L/L182I/V261L) (P34972 whole entry I110L/L182I/V261L): as the sequence (P34972 whole entry V261L) above, with I110L, L182I counted along it
Sequence of CB1 L193I (P21554 whole entry L193I): as the sequence (P21554 whole entry I267L) above, with L193I, L267I counted along it

SMILES: CCCCCCC(C)(C)c1ccc([C@@H]2C[C@H](O)CC[C@H]2CCCO)c(O)c1 [CP55940]
- Emax [1]: 3 ± 2%
- Emax [2]: 98.2 ± 2.2%
- Emax [3]: 33.8 ± 2.6%
- Emax [4]: 77.6 ± 2.5%
- Emax [5]: 99.7 ± 2.7%
- Emax [6]: 32.2 ± 2.5%
- Emax [7]: 83.1 ± 2.8%
- E max, CB1 Gαi1 Engagement [8]: 99.4 ± 3.0%
- Emax [9]: 99.8 ± 2.7%

Source: article PMC13495017 (ACS Bio & Med Chem Au, 2026)
